Data as given in PMC12467234, “Label-Free and Ultrasensitive APE1 Detection Based on Hybridization Chain Reaction Combined with G-Quadruplex” (Biomolecules, 2025).
pIC50: −log10 of the molar value. Read-outs that look alike come from different tables or passages of the source.

Biological target: T1, Apurinic/apyrimidinic endonuclease 1 (APE1) (Homo sapiens, UniProt P27695)
T1 construct: gene APEX1
Assay: fluorescent HCR/G-quadruplex-ThT assay of AP-site cleavage by purchased APE1; also in cell lysates
Type: biochemical

T1 sequence (P27695 2-318): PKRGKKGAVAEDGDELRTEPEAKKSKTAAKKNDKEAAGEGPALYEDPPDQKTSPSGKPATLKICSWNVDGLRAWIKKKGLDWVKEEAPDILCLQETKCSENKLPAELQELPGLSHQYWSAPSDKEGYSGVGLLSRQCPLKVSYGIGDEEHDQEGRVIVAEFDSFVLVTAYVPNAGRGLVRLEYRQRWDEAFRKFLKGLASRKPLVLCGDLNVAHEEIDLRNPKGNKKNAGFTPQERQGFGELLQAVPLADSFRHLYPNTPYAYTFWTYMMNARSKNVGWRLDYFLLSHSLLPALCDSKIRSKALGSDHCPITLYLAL

Row | Structure (SMILES) | pIC50 | pIC50 (read-out: IC50)
1 | O=C(O)c1cc2cccc([N+](=O)[O-])c2[nH]1 [NCA, 7-nitroindole-2-carboxylic acid] | ~5.46 | 
2 | CO/N=C(\C(=O)N[C@@H]1C(=O)N2C(C(=O)O)=C(COC(C)=O)CS[C@H]12)c1csc(N)n1 [cefotaxime sodium] |  | ~4.12
